Data set [1] has as its system glioblastoma in the left parieto-temporal lobe. Nature of the data set: Clinical Test-2: patient. Type of data set: in vivo, human. The conditions noted are these: after surgery, radiotherapy and Tremodal. As for the experimental part:
(§1) The following clinical tests were conducted using the composition of Example 1.
This patient with symptoms of headache, vomiting, diplopia, and visual field defect was diagnosed with glioblastoma in the left parieto-temporal lobe. On the 3rd day after the diagnosis, tumor removal was conducted by surgery, and the tumor was confirmed as glioblastoma of the WHO grade IV/IV as a result of pathologic diagnosis. Radiotherapy with Tremodal treatment (61.2 Gy/33fx) was performed from the 45th day to the 90th day after the diagnosis. The remaining tumors were still confirmed on MRI images after the radiotherapy and Tremodal treatment. From the 95th day after the diagnosis, 5 mg of Example 1 was administered three times a day for 17 months. […] The pre-treatment MRI images of this patient are shown in FIG. 7, and MRI images after the surgery and radiotherapy are shown in FIG. 8. Respective images after four months, seven months, and ten months of administration of Example 1 are shown in FIGS. 9A, 9B, and 9C, respectively.

Data set [2] relates to U-87MG cells labeled with luciferase. Nature of the data set: In vivo efficacy test, tumor imaging signal in animal models transplanted with human brain glioblastoma cell line. The arrangement: species or system Balb/C female nude mice. As to conditions: 2.25 mg/kg once daily. As for the experimental part: (§2) The human brain glioblastoma cell line U-87MG (purchased from ATCC) was incubated in Eagle's Minimum Essential Medium (EMEM) supplemented with 10% FBS, 100 U/ml penicillin, and 100 μg/ml streptomycin in an incubator under conditions of 37° C., 5% CO2, and 95% air. The medium was exchanged every three days.
(§3) The U-87MG cells labeled with luciferase were inoculated into the primary site of the brain in […] Balb/C female nude mice weighing 16-19 g, and the amount of cells inoculated was 5×10^5/5 uL. The animals were subjected to imaging examinations on the 6th day after the inoculation, when the surgical sites of the animals were restored and the tumor cells were slightly grown. The animals were randomly divided into two groups, four animals for each group, according to the imaging results. A test group was administered with a solution containing Example 1 dissolved in physiological saline (0.9% NaCl), and a control group was administered with only physiological saline, which is a solvent used for the test group. The animals of the two groups were administered once daily with physiological saline or 2.25 mg/kg Example 1. The dose was 10 uL/g on the basis of the weight of the animals. During the administration, the weight and health conditions of the animals were continuously monitored, and at the same time, the animals were subjected to image examination.

The subject of data set [3] is human brain glioblastoma cell line U-118MG. Nature of the data set: Cell proliferation assay (MTT assay), U-118MG. Type of data set: cell-based. As for the experimental part: (§4) Fetal bovine serum (FBS) and cell culture medium were prepared (Hyclone), and dimethyl sulfoxide (DMSO) and 3-(4,5-dimetyl-thiazol-2yl)-2,5-diphenyltetrazolium bromide (MTT, Amresco LLC, USC) were prepared.
(§5) As human cancer cell lines, human brain glioblastoma cell lines U-87MG and U-118MG were obtained from the Shanghai Cell Bank of Chinese Academy of Sciences. The cells were incubated in Eagle's Minimum Essential Medium (EMEM), supplemented with 10% FBS, 100 U/ml penicillin, and 100 μg/ml streptomycin according to the culture condition, in a humidified incubator with 5% CO2 and 95% air. The medium was exchanged every three days.
(§6) The effects of Example 1 and Comparative Examples 1 to 3 on cell proliferation were assessed using MTT assay. MTT assay is based on the ability of viable cells against MTT to produce insoluble dark blue formazan products. After the cells were suspended in the medium by trypsin treatment and collected, the cells were dispensed at a density of 4×10^3 cells/well in a 96-well culture dish (Costar, Cambridge, Mass., USA). After 24 hours, Example 1 and Comparative Examples 1 to 3 as treatment samples were added, at 0, 0.625, 1.25, 2.5, 5, 10, 20, 40, or 80 μM, to the cells in the media containing 10% FBS, and then the cells were incubated. […] All the crystals were completely dissolved by standing at room temperature for 15 minutes, and the absorbance was measured using a micro-plate reader at a wavelength of 570 nm (A570 nm).
(§7) The absorbance value of the control group treated without the sample was calculated as 100, and the absorbance value of the treatment group treated with the sample, compared with that of the control group, was calibrated, and the percentage of inhibition of cell proliferation was calculated according to the following equation. Percentage (%) of inhibition of cell proliferation=((mean absorbance of control group cells−mean absorbance of treatment group cells)/mean absorbance of control group cells)×100
(§8) All data were expressed as mean±standard error of the mean (mean±SEM). […]
A general note: Tetrazolium assays rely on reduction of a dye to a coloured formazan, in cell work by metabolically active cells.

Data set [4] is described as follows: Weight measurement in animal models transplanted with human brain glioblastoma cell line. Type of data set: in vivo, Balb/C female nude mice. As to the method:
as §2, §3

Data set [5] concerns human brain glioblastoma cell line U-87MG. The experiment in a line: Cell proliferation assay (MTT assay), U-87MG. Type of data set: cell-based. As to the method:
as §4, §5, §6, §7, §8

The next data set deals with gliomatosis cerebri. The experiment in a line: Clinical Test-1: patient. Type of data set: in vivo, human. As for the experimental part: as §1
From the 10th day after the diagnosis, mobility weakening and trembling symptoms of both arms began to appear and then proceeded rapidly. […] Pre-treatment MRI images of this patient are shown in FIG. 4, and MRI images after two months and three months of radiotherapy together with administration of Example 1 are shown in FIGS. 5 and 6, respectively.

The mark [6] stands for this setting: from the 7th day of administration (FIG. 10A).
Setting [7] is: compared with Comparative Example 2 or 3 (4:1 or 1:1 mixtures).

As for tetraarsenic hexoxide [Example 1], in data set [1] (5 mg three times a day for 17 months), the “sizes of remaining tumors (MRI)” value is listed as “confirmed to decrease”. The subjective symptoms entry in data set [1] (5 mg three times a day, from 2 months of administration) is “no subjective symptom”. Further, in data set [2] (7th and 9th days of administration (FIG. 10B), control group vs test group), the “luminescence signal intensities due to the proliferation and metastasis of tumors” value is recorded as “in the control group were much stronger than those in the test group”. In data set [2] (setting [6]), the tumor signal intensities result is “significantly light”. In addition, the “tumor signals in the spine (tumor metastasis into the spine)” value in data set [2] (setting [6]) was “hardly observed in the spine”. The “percentage of inhibition of brain glioblastoma cell proliferation” value in data set [3] (setting [7]) is reported as “higher”; in data set [3] (incubation 48 hours (FIG. 3A), compared with Comparative Example 1), “higher”; in data set [3] (incubation 72 hours (FIG. 3B), compared with Comparative Example 1) it was “higher”; in data set [5] (setting [7]), “higher”; in data set [5] (incubation 48 hours (FIG. 2A), compared with Comparative Example 1), “higher”; in data set [5] (incubation 72 hours (FIG. 2B), compared with Comparative Example 1) it was “higher”. Further, the “Body change 9 days after the first administration” value in data set [4] (2.25 mg/kg once daily) is -0.8 g. In data set [4] (2.25 mg/kg once daily, mean ± SEM, 4 animals), the “Weight 9 days after the first administration” value is reported as 16.1 ± 0.5 g. In addition, the “weight after 9 days of drug administration (in words)” value in data set [4] (2.25 mg/kg once daily, control group largely reduced) is recorded as “almost unchanged weight”. The Weight before administration in data set [4] (test group, mean ± SEM, 4 animals, baseline) was found to be 16.9 ± 0.2 g. Moreover, the “mobility weakening and trembling symptoms” value in the data set with gliomatosis cerebri (15 mg per day from the 17th day after the diagnosis, before radiotherapy) is reported as “began to improve”. For the same substance, in the data set with gliomatosis cerebri (15 mg per day together with radiotherapy from the 27th to the 75th day after the diagnosis), the symptoms entry is “the symptoms disappeared completely”. In addition, the “tumor size on MRI images” value is on record as “tumors almost disappeared” in the data set on gliomatosis cerebri (after three months of radiotherapy together with administration (FIG. 6)) and “tumor sizes were reduced” with gliomatosis cerebri (after two months of radiotherapy together with administration (FIG. 5)).

The values are drawn from US10493100B2, “Pharmaceutical composition for preventing or treating brain cancer including crystal polymorph of tetraarsenic hexoxide, and method for preparing same” (CHEMAS CO., LTD., priority 2016, dated 2019).
